Measured values taken from PubChem BioAssay (NCI).
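At the GI50, growth is halved. Definition used: TGI = concentration required for complete inhibition of growth.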

Legend:
Assay in all cases: NCI-60 cell line screen, 384-well format
786-0 renal = system: 786-0 renal
A498 renal = system: A498 renal
A549 NSCLC = system: A549 NSCLC
CCRF-CEM leukemia = system: CCRF-CEM leukemia
DU-145 prostate = system: DU-145 prostate
HCC-2998 colon = system: HCC-2998 colon
HCT-116 colon = system: HCT-116 colon
HCT-15 colon = system: HCT-15 colon
HOP-92 NSCLC = system: HOP-92 NSCLC
K-562 leukemia = system: K-562 leukemia
LOX IMVI melanoma = system: LOX IMVI melanoma
MALME-3M melanoma = system: MALME-3M melanoma
MDA-MB-435 melanoma = system: MDA-MB-435 melanoma
MDA-MB-468 breast = system: MDA-MB-468 breast
MOLT-4 leukemia = system: MOLT-4 leukemia
NCI-H322M lung = system: NCI-H322M lung
NCI-H460 NSCLC = system: NCI-H460 NSCLC
NCI-H522 lung = system: NCI-H522 lung
OVCAR-3 ovarian = system: OVCAR-3 ovarian
OVCAR-4 ovarian = system: OVCAR-4 ovarian
OVCAR-5 ovarian = system: OVCAR-5 ovarian
SF-295 CNS = system: SF-295 CNS
SF-539 CNS = system: SF-539 CNS
SK-MEL-28 melanoma = system: SK-MEL-28 melanoma
SK-MEL-5 melanoma = system: SK-MEL-5 melanoma
SK-OV-3 ovarian = system: SK-OV-3 ovarian
SN12C renal = system: SN12C renal
SNB-19 CNS = system: SNB-19 CNS
T-47D breast = system: T-47D breast
TK-10 renal = system: TK-10 renal
U251 glioblastoma = system: U251 glioblastoma
UACC-257 melanoma = system: UACC-257 melanoma

CC#CC(=O)N[C@H]1CCCN(c2c(F)cc(C(N)=O)c3[nH]c(C)c(C)c23)C1
GI50 ([…]-0 renal): 15.9 µM | TGI (786-0 renal): 33.2 µM | GI50 (A498 renal): 14.7 µM | TGI (A498 renal): 28.4 µM | GI50 (A549 NSCLC): 18.1 µM | TGI (A549 NSCLC): 37.9 µM | GI50 (CCRF-CEM leukemia): 16.9 µM | TGI (CCRF-CEM leukemia): 30.8 µM | GI50 (DU-145 prostate): 18.1 µM | TGI (DU-145 prostate): 37.2 µM | GI50 (HCC-2998 colon): 11.1 µM | TGI (HCC-2998 colon): 23.2 µM | GI50 (HCT-116 colon): 13.8 µM | TGI (HCT-116 colon): 27.3 µM | GI50 (HCT-15 colon): 10.8 µM | TGI (HCT-15 colon): 22.9 µM | GI50 (HOP-92 NSCLC): 15 µM | TGI (HOP-92 NSCLC): 33.7 µM | GI50 (K-562 leukemia): 15 µM | TGI (K-562 leukemia): 28.9 µM | GI50 (LOX IMVI melanoma): 15.4 µM | TGI (LOX IMVI melanoma): 28.9 µM | GI50 (MALME-3M melanoma): 18 µM | TGI (MALME-3M melanoma): 32 µM | GI50 (MDA-MB-435 melanoma): 17.2 µM | TGI (MDA-MB-435 melanoma): 34.1 µM | GI50 (MDA-MB-468 breast): 2.88 µM | TGI (MDA-MB-468 breast): 11.1 µM | GI50 (MOLT-4 leukemia): 14 µM | TGI (MOLT-4 leukemia): 27.1 µM | GI50 (NCI-H322M lung): 16.2 µM | TGI (NCI-H322M lung): 30.9 µM | GI50 (NCI-H460 NSCLC): 15.8 µM | TGI (NCI-H460 NSCLC): 29.6 µM | GI50 (NCI-H522 lung): 4.54 µM | TGI (NCI-H522 lung): 17.5 µM | GI50 (OVCAR-3 ovarian): 14.5 µM | TGI (OVCAR-3 ovarian): 28 µM | GI50 (OVCAR-4 ovarian): 13.4 µM | TGI (OVCAR-4 ovarian): 26.6 µM | GI50 (OVCAR-5 ovarian): 16.9 µM | TGI (OVCAR-5 ovarian): 38.4 µM | GI50 (SF-295 CNS): 13.9 µM | TGI (SF-295 CNS): 26.9 µM | GI50 (SF-539 CNS): 15.3 µM | TGI (SF-539 CNS): 28.8 µM | GI50 (SK-MEL-28 melanoma): 18.5 µM | TGI (SK-MEL-28 melanoma): 33.1 µM | GI50 (SK-MEL-5 melanoma): 13.8 µM | TGI (SK-MEL-5 melanoma): 26.8 µM | GI50 (SK-OV-3 ovarian): 14.4 µM | TGI (SK-OV-3 ovarian): 34.3 µM | GI50 (SN12C renal): 14.9 µM | TGI (SN12C renal): 28.9 µM | GI50 (SNB-19 CNS): 17.3 µM | TGI (SNB-19 CNS): 32.4 µM | GI50 (T-47D breast): 5.36 µM | TGI (T-47D breast): 18.6 µM | GI50 (TK-10 renal): 21 µM | TGI (TK-10 renal): 58.6 µM | GI50 (U251 glioblastoma): 17.3 µM | TGI (U251 glioblastoma): 31.4 µM | GI50 (UACC-257 melanoma): 11.5 µM | TGI (UACC-257 melanoma): 23.7 µM
